The values below come from US8680275B2, “Fused heterocyclic compounds as orexin receptor modulators” (Janssen Pharmaceutica NV, priority 2009, dated 2014).

Where only a bound is given, the exact number is not on record here.

One experiment addresses human orexin 1 receptor (Homo sapiens (Human), UniProt O43613). As to the kind of experiment: Human orexin 1 receptor radioligand binding ([3H]-SB674042 competition). Particulars: CHO cells stably expressing human orexin 1 receptor; [3H]-SB674042 4 nM final; read-out: OR-1 Ki. In short, it runs like this: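 CHO cells stably expressing human OX1R incubated 60 min at room temperature with [3H]-SB674042 and compounds (7 concentrations, 0.1 nM–10 μM; DMSO ≤0.1%) in PBS. Nonspecific binding defined with 10 μM of a reference urea antagonist; bound radioactivity measured by filtration and scintillation counting.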

For the next experiment, the target named is human orexin-2 receptor (Homo sapiens (Human), UniProt O43614). As to the kind of experiment: Human orexin 2 receptor radioligand binding ([3H]-EMPA competition). Particulars: HEK293 cells stably expressing human orexin-2 receptor; [3H]-EMPA 5 nM final; read-out: OR-2 Ki. The procedure, abridged:
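Competition binding on HEK293 cells stably expressing human orexin-2 receptor, using 5 nM final [3H]-EMPA in PBS, compounds 0.1 nM to 10 μM (DMSO ≤0.1%). 60 min at room temperature, then filtration and scintillation counting; nonspecific binding defined with 10 μM of a reference antagonist.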

human orexin-2 receptor, sequence (O43614 whole entry): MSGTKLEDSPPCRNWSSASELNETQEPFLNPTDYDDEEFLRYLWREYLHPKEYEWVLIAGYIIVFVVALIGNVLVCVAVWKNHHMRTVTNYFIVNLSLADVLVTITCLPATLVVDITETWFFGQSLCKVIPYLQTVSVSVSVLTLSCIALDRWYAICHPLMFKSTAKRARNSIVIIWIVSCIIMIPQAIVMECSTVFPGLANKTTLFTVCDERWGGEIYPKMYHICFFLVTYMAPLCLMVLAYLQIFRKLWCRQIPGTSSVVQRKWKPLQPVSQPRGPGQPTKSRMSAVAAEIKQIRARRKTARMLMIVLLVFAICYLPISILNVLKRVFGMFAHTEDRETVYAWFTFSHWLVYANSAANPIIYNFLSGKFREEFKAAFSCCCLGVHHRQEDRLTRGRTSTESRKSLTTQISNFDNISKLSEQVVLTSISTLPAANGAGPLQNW
human orexin 1 receptor, sequence (O43613 whole entry): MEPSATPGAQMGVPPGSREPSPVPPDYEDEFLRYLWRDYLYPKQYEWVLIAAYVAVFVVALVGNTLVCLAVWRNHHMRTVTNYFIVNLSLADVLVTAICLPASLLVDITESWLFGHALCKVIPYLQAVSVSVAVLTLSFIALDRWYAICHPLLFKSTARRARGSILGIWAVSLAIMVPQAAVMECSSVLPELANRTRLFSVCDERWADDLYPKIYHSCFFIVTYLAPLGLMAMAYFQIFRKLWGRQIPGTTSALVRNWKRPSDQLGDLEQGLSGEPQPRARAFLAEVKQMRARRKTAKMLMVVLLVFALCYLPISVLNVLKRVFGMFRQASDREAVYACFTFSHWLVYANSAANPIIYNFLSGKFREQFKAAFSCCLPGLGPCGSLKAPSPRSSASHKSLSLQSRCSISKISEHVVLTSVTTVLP

With `Cc1cc(C)nc(N2C[C@@H]3CCN(C(=O)c4cccc(F)c4-c4cc[nH]n4)C[C@@H]32)n1` [Example 184, (1R,6S)-8-(4,6-Dimethylpyrimidin-2-yl)-3-{[3-fluoro-2-(1H-pyrazol-3-yl)phenyl]carbonyl}-3,8-diazabicyclo[4.2.0]octane], the Ki (commonly the dissociation constant of the complex between target and ligand, obtained from inhibition or displacement) was found to be 156 nM at human orexin 1 receptor and 9 nM at human orexin-2 receptor.
For `Cc1nccnc1N1C[C@@H]2CCN(C(=O)c3ccccc3-n3nccn3)C[C@@H]21` [Example 105, (1R,6S)-8-(3-Methylpyrazin-2-yl)-3-{[2-(2H-1,2,3-triazol-2-yl)phenyl]carbonyl}-3,8-diazabicyclo[4.2.0]octane], the inhibitory constant (Ki) on human orexin 1 receptor and on human orexin-2 receptor was 10000 nM each time.
For the compound `Cc1cc(N2C[C@@H]3CCN(C(=O)c4cc(F)ccc4-n4nccn4)C[C@@H]32)nc(N)n1` [Example 186, 4-[(1R,6S)-3-{[5-Fluoro-2-(2H-1,2,3-triazol-2-yl)phenyl]carbonyl}-3,8-diazabicyclo[4.2.0]oct-8-yl]-6-methylpyrimidin-2-amine], the Ki at human orexin 1 receptor amounted to 10000 nM; on human orexin-2 receptor it was 680 nM.
The matching figures for `COc1ccc(C(=O)N2CC[C@H]3CN(c4cc(C)cc(C)n4)[C@H]3C2)c(-n2nccn2)c1` [Example 149, (1R,6S)-8-(4,6-Dimethylpyridin-2-yl)-3-{[4-methoxy-2-(2H-1,2,3-triazol-2-yl)phenyl]carbonyl}-3,8-diazabicyclo[4.2.0]octane]: 10000 nM and 190 nM.
The matching figures for `O=C(c1cccc(F)c1-c1ncccn1)N1CC[C@H]2CN(c3cc(C(F)(F)F)ccn3)[C@H]2C1` [Example 152, (1R,6S)-3-[(3-Fluoro-2-pyrimidin-2-ylphenyl)carbonyl]-8-[4-(trifluoromethyl)pyridin-2-yl]-3,8-diazabicyclo[4.2.0]octane]: 1850 nM and 223 nM.
The matching figures for `O=C(c1cc(F)ccc1-n1nccn1)N1CC[C@H]2CN(c3nccc(C(F)(F)F)n3)[C@H]2C1` [Example 94, (1R,6S)-3-{[5-Fluoro-2-(2H-1,2,3-triazol-2-yl)phenyl]carbonyl}-8-[4-(trifluoromethyl)pyrimidin-2-yl]-3,8-diazabicyclo[4.2.0]octane]: 10000 nM and 370 nM.
In the case of `O=C(c1c(F)cccc1-n1nccn1)N1CC[C@H]2CN(c3cnc4ccccc4n3)[C@H]2C1` [Example 117, 2-[(1R,6S)-3-{[2-Fluoro-6-(2H-1,2,3-triazol-2-yl)phenyl]carbonyl}-3,8-diazabicyclo[4.2.0]oct-8-yl]quinoxaline], the inhibitory constant (Ki) on human orexin 1 receptor is 23 nM; on human orexin-2 receptor, 18 nM.
The matching figures for `Cc1cc(N2C[C@@H]3CCN(C(=O)c4ccccc4-n4nccn4)C[C@@H]32)nc(C(F)(F)F)n1` [Example 35, (1R,6S)-[8-(6-Methyl-2-trifluoromethyl-pyrimidin-4-yl)-3,8-diaza-bicyclo[4.2.0]oct-3-yl]-(2-[1,2,3]triazol-2-yl-phenyl)-methanone]: 117 nM and 24 nM.
The matching figures for `Cc1ccc(C)c(S(=O)(=O)N2CCC3CN(c4nccc(-c5ccccc5)n4)C3C2)c1` (stereo not shown) [Example 19, 3-(2,5-Dimethyl-benzenesulfonyl)-8-(4-phenyl-pyrimidin-2-yl)-3,8-diaza-bicyclo[4.2.0]octane]: 254 nM and 1070 nM.
Turning to `Cc1nc(C(=O)N2CC3CN(c4cnc5ccccc5n4)C3C2)c(-c2ccccc2F)s1` (stereo not shown) [Example 51, 2-(3-{[5-(2-Fluorophenyl)-2-methyl-1,3-thiazol-4-yl]carbonyl}-3,6-diazabicyclo[3.2.0]hept-6-yl)quinoxaline], the Ki on human orexin 1 receptor amounted to 432 nM; at human orexin-2 receptor it was 501 nM.
Turning to `Cc1cc(C)nc(N2C[C@@H]3CCN(C(=O)c4cccc5c4-c4ccccc4C5=O)C[C@@H]32)n1` [Example 168, 4-{[(1R,6S)-8-(4,6-Dimethylpyrimidin-2-yl)-3,8-diazabicyclo[4.2.0]oct-3-yl]carbonyl}-9H-fluoren-9-one], the inhibitory constant (Ki) at human orexin 1 receptor amounted to 7300 nM; on human orexin-2 receptor, 740 nM.
Turning to `Cc1cncc(N2C[C@@H]3CCN(C(=O)c4cc(F)ccc4-n4nccn4)C[C@@H]32)n1` [Example 111, (1R,6S)-3-{[5-Fluoro-2-(2H-1,2,3-triazol-2-yl)phenyl]carbonyl}-8-(6-methylpyrazin-2-yl)-3,8-diazabicyclo[4.2.0]octane], the results for the inhibition constant Ki at human orexin 1 receptor and on human orexin-2 receptor were 5000 nM and 176 nM, respectively.
The matching figures for `Cc1cc(N2C[C@@H]3CCN(C(=O)c4ccccc4-n4nccn4)C[C@@H]32)nc(N(C)C)n1` [Example 43, (1R,6S)-[8-(2-Dimethylamino-6-methyl-pyrimidin-4-yl)-3,8-diaza-bicyclo[4.2.0]oct-3-yl]-(2-[1,2,3]triazol-2-yl-phenyl)-methanone]: 475 nM and 90 nM.
Regarding `Cc1cnc(C)c(N2C[C@@H]3CCN(C(=O)c4c(F)cccc4-n4nccn4)C[C@@H]32)n1` [Example 98, (1R,6S)-8-(3,6-Dimethylpyrazin-2-yl)-3-{[2-fluoro-6-(2H-1,2,3-triazol-2-yl)phenyl]carbonyl}-3,8-diazabicyclo[4.2.0]octane], the Ki at human orexin 1 receptor was 4920 nM; on human orexin-2 receptor, 274 nM.
The matching figures for `CCOc1ccc2ccccc2c1C(=O)N1CC2CN(c3nc(C)cc(C)n3)C2C1` (stereo not shown) [Example 65, 6-(4,6-Dimethylpyrimidin-2-yl)-3-[(2-ethoxynaphthalen-1-yl)carbonyl]-3,6-diazabicyclo[3.2.0]heptane]: 1070 nM and 42 nM.
With `Cc1nccnc1N1C[C@@H]2CCN(C(=O)c3c(F)cccc3-n3nccn3)C[C@@H]21` [Example 106, (1R,6S)-3-{[2-Fluoro-6-(2H-1,2,3-triazol-2-yl)phenyl]carbonyl}-8-(3-methylpyrazin-2-yl)-3,8-diazabicyclo[4.2.0]octane], the Ki at human orexin 1 receptor and at human orexin-2 receptor was 10000 nM in each case.
Take `Cc1cc(C)nc(N2C[C@@H]3CCN(C(=O)c4cccc(C)c4-n4nccn4)C[C@@H]32)n1` [Example 135, (1R,6S)-8-(4,6-Dimethylpyrimidin-2-yl)-3-{[3-methyl-2-(2H-1,2,3-triazol-2-yl)phenyl]carbonyl}-3,8-diazabicyclo[4.2.0]octane]: the Ki at human orexin 1 receptor was found to be 135 nM; on human orexin-2 receptor, 15 nM.
The matching figures for `O=C(c1ccccc1-n1nccn1)N1CC[C@H]2CN(c3nc4cc(Cl)ccc4o3)[C@H]2C1` [Example 119, 5-Chloro-2-[(1R,6S)-3-{[2-(2H-1,2,3-triazol-2-yl)phenyl]carbonyl}-3,8-diazabicyclo[4.2.0]oct-8-yl]-1,3-benzoxazole]: 32 nM and 17 nM.
Turning to `COc1ccc(-n2nccn2)c(C(=O)N2CC[C@H]3CN(c4cc(N(C)C)ccn4)[C@H]3C2)c1` [Example 150, 2-[(1R,6S)-3-{[5-Methoxy-2-(2H-1,2,3-triazol-2-yl)phenyl]carbonyl}-3,8-diazabicyclo[4.2.0]oct-8-yl]-N,N-dimethylpyridin-4-amine], the inhibitory constant (Ki) at human orexin 1 receptor turned out to be 10000 nM; on human orexin-2 receptor, 532 nM.
`O=C(c1cc(F)ccc1-n1nccn1)N1CC[C@H]2CN(c3cc(NC4CC4)ncn3)[C@H]2C1` [Example 194, N-Cyclopropyl-6-[(1R,6S)-3-{[5-fluoro-2-(2H-1,2,3-triazol-2-yl)phenyl]carbonyl}-3,8-diazabicyclo[4.2.0]oct-8-yl]pyrimidin-4-amine]: the Ki worked out at 10000 nM on human orexin 1 receptor and 650 nM at human orexin-2 receptor.
In the same order, the values of `COc1ccc(C(=O)N2CC[C@H]3CN(c4nc(C)cc(C)n4)[C@H]3C2)c(-n2nccn2)c1` [Example 90, (1R,6S)-8-(4,6-Dimethylpyrimidin-2-yl)-3-{[4-methoxy-2-(2H-1,2,3-triazol-2-yl)phenyl]carbonyl}-3,8-diazabicyclo[4.2.0]octane] are not below 10000 nM and 150 nM.
For the compound `Cc1cc(C)nc(N2CC3CN(C(=O)c4ccccc4-c4cccs4)CC32)n1` (stereo not shown) [Example 57, 6-(4,6-Dimethylpyrimidin-2-yl)-3-[(2-thiophen-2-ylphenyl)carbonyl]-3,6-diazabicyclo[3.2.0]heptane], the Ki is 3570 nM on human orexin 1 receptor and 29 nM at human orexin-2 receptor.
The matching figures for `COc1ccc(-c2ncccn2)c(C(=O)N2CC[C@H]3CN(c4nc(C)cc(C)n4)[C@H]3C2)c1F` [Example 156, (1R,6S)-8-(4,6-Dimethylpyrimidin-2-yl)-3-[(2-fluoro-3-methoxy-6-pyrimidin-2-ylphenyl)carbonyl]-3,8-diazabicyclo[4.2.0]octane]: 860 nM and 185 nM.
The matching figures for `Cc1cc(C)nc(N2C[C@@H]3CCN(C(=O)c4cc(F)ccc4-c4ccn[nH]4)C[C@@H]32)n1` [Example 171, (1R,6S)-8-(4,6-dimethylpyrimidin-2-yl)-3-{[5-fluoro-2-(1H-pyrazol-3-yl)phenyl]carbonyl}-3,8-diazabicyclo[4.2.0]octane]: 392 nM and 15 nM.
As to `Cc1cnc(C)c(N2C[C@@H]3CCN(C(=O)c4ccc(F)cc4-n4nccn4)C[C@@H]32)n1` [Example 31, (1R,6S)-[8-(3,6-Dimethyl-pyrazin-2-yl)-3,8-diaza-bicyclo[4.2.0]oct-3-yl]-(4-fluoro-2-[1,2,3]triazol-2-yl-phenyl)-methanone], the Ki on human orexin 1 receptor is not below 10000 nM; at human orexin-2 receptor, 81 nM.
In the same order, the values of `Cc1ccc(-n2nccn2)c(C(=O)N2CC[C@H]3CN(c4nc(C)cc(C)n4)[C@H]3C2)c1` [Example 26, (1R,6S)-[8-(4,6-Dimethyl-pyrimidin-2-yl)-3,8-diaza-bicyclo[4.2.0]oct-3-yl]-(5-methyl-2-[1,2,3]triazol-2-yl-phenyl)-methanone] are 52 nM and 13 nM.
